Several values for one entry are separate records, joined by “and”; a condition that tells them apart may be missing. Equal entries are not always repeated. Peptide text beside a SMILES is read from it.
Key:
Type in all cases: cell-based
[1] = tested on: HIV-1 NDK; test: HIV-1 infection of C8166 cells (syncytia formation, p24 ELISA) with HIV-1 NDK; design: key to syncitia formed, Day 4 / syncitia formed, Day 5 / syncitia formed, Day 6 / syncitia formed, Day 7: ++, +, (+), (+)− and − represent decreasing numbers of syncitia formed; ++, +, (+), (+)− and − represent decreasing numbers of syncitia formed; ++, +, (+), (+)− and − represent decreasing numbers of syncitia formed; ++, +, (+), (+)− and − represent decreasing numbers of syncitia formed; ++, +, (+), (+)− and − represent decreasing numbers of syncitia formed; settings: for P 24: P 24 after Day 7
Protocol: HIV-1 NL 4-3 isolate (Adachi et al., 1986; Barré-Sinoussi et al., 1983) and highly cytopathic Zairian HIV-1 NDK isolate (Ellrodt et al., 1984) was propagated in permissive CEM cells (Nara et al., 1987). Uninfected CEM and C8166 (Salahuddin et al., 1983) were maintained in RPMI 1640 (R10) with ultraglutamine (cambrex, Vervier, Belgium), penicillin (100 U/ml), streptomycin (100 μg/ml), and 10% heat-inactivated fetal calf serum (Cambrex).
Samples of 3×10^5/100 μL C8166 cells were preincubated in 96-well microtiter plates in culture medium containing various concentrations of peptide. After a 1 h treatment at 37° C., 100 μl of diluted viral solution of HIV-1 was added. The cells were exposed to the virus for 1 h at 37° C. at a multiplicity of infection of 1000 TCID50 per ml. The cells were washed three times and cultured at 3×10^5/ml of R10 with the treatment in 24-well plates incubated at 37° C. C8166 culture medium was replaced at Day-4 post-infection. The treatment was permanent before virus adsorption, during virus adsorption and after infection. Assays on C8166 cells have been performed at least twice and in duplicate. Toxicity was evaluated by daily cell count and trypan-blue exclusion assay. Infection of C8166 T-cells with HIV-1 was assessed by virus-induced cytopathic effects (syncytia formation) and by quantification of cell free p24 viral protein in the culture supernatants. Measurements of HIV-1 p24^gag concentration in the culture supernatants were achieved by ELISA (ALLIANCE® HIV-1 p24 kit, Perkin Elmer, life sciences, USA).

[2] = tested on: HIV-1 NL 4-3; test: HIV-1 infection of C8166 cells (syncytia formation, p24 ELISA) with HIV-1 NL 4-3; design: key to syncitia formed, Day 4 / syncitia formed, Day 5 / syncitia formed, Day 6 / syncitia formed, Day 7: ++, +, (+), (+)− and − represent decreasing numbers of syncitia formed; ++, +, (+), (+)− and − represent decreasing numbers of syncitia formed; ++, +, (+), (+)− and − represent decreasing numbers of syncitia formed; ++, +, (+), (+)− and − represent decreasing numbers of syncitia formed; ++, +, (+), (+)− and − represent decreasing numbers of syncitia formed
Summary of the method: (§1)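 Infection was read out as syncytia and as cell-free p24 in supernatants (ELISA) from C8166 cells that received HIV-1 (1000 TCID50/ml, 1 h, 37 °C) after a 1 h peptide pretreatment. Peptide stayed on before, during and after adsorption. Toxicity was checked by daily trypan-blue counts.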

[3] = tested on: HIV-1 NL 4-3; test: as above; design: key: ++, +, (+), (+)− and − represent decreasing numbers of syncitia formed; ++, +, (+), (+)− and − represent decreasing numbers of syncitia formed; ++, +, (+), (+)− and − represent decreasing numbers of syncitia formed; ++, +, (+), (+)− and − represent decreasing numbers of syncitia formed; ++, +, (+), (+)− and − represent decreasing numbers of syncitia formed; settings: Table 6
Summary of the method: as §1

[4] = C8166 cells, HIV-1 subtype B NL 4-3, Table 9, two lines = tested twice, 8 days apart

Structure (SMILES): NCC(=O)N1CCC[C@H]1C(=O)NCC(=O)O [GPG, reference compound] (H-Gly-Pro-Gly-OH)
- syncitia formed, Day 4 ([1]; 0.005 μM): +
- syncitia formed, Day 5 ([1]; 0.005 μM): +
- syncitia formed, Day 6 ([1]; 0.005 μM): ++
- syncitia formed, Day 7 ([1]; 0.005 μM): ++
- P 24 ([1]; 0.005 μM): 23810 pg/mL
- syncitia formed, Day 4 ([1]; 0.01 μM): +
- syncitia formed, Day 5 ([1]; 0.01 μM): +
- syncitia formed, Day 6 ([1]; 0.01 μM): ++
- syncitia formed, Day 7 ([1]; 0.01 μM): ++
- P 24 ([1]; 0.01 μM): 23810 pg/mL
- syncitia formed, Day 4 ([1]; 0.05 μM): (+)
- syncitia formed, Day 5 ([1]; 0.05 μM): +
- syncitia formed, Day 6 ([1]; 0.05 μM): ++
- syncitia formed, Day 7 ([1]; 0.05 μM): ++
- P 24 ([1]; 0.05 μM): 23810 pg/mL
- syncitia formed, Day 4 ([1]; 0.1 μM): −
- syncitia formed, Day 5 ([1]; 0.1 μM): +
- syncitia formed, Day 6 ([1]; 0.1 μM): ++
- syncitia formed, Day 7 ([1]; 0.1 μM): ++
- P 24 ([1]; 0.1 μM): 23810 pg/mL
- syncitia formed, Day 4 ([1]; 0.5 μM): −
- syncitia formed, Day 5 ([1]; 0.5 μM): +
- syncitia formed, Day 6 ([1]; 0.5 μM): ++
- syncitia formed, Day 7 ([1]; 0.5 μM): ++
- P 24 ([1]; 0.5 μM): 21110 pg/mL and 23810 pg/mL
- syncitia formed, Day 4 ([1]; 1 μM): −
- syncitia formed, Day 5 ([1]; 1 μM): (+)
- syncitia formed, Day 6 ([1]; 1 μM): +
- syncitia formed, Day 7 ([1]; 1 μM): +
- P 24 ([1]; 1 μM): 3810 pg/mL and 2507 pg/mL
- syncitia formed, Day 4 ([1]; 5 μM): −
- syncitia formed, Day 5 ([1]; 5 μM): −
- syncitia formed, Day 6 ([1]; 5 μM): −
- syncitia formed, Day 7 ([1]; 5 μM): +
- P 24 ([1]; 5 μM): 2733 pg/mL and 2400 pg/mL
- IC50 ([1]; HIV 1 NDK, Table 10): 500 nM
- IC100 ([1]; HIV 1 NDK, Table 10): >5 µM
- Day 7 syncitia formed ([2]; 0.005 μM, Table 6): ++/T
- syncitia formed, Day 4 ([2]; 0.01 μM, C8166 cells): (+)
- syncitia formed, Day 5 ([2]; 0.01 μM, C8166 cells): (+)
- syncitia formed, Day 6 ([2]; 0.01 μM, C8166 cells): +
- syncitia formed, Day 7 ([2]; 0.01 μM, Day 7, C8166 cells): ++
- P 24 ([2]; 0.01 μM, P 24 after Day 7, C8166 cells): 9810 pg/mL and 15810 pg/mL
- syncitia formed, Day 4 ([2]; 0.1 μM, C8166 cells): −
- syncitia formed, Day 5 ([2]; 0.1 μM, C8166 cells): −
- syncitia formed, Day 6 ([2]; 0.1 μM, C8166 cells): (+)
- syncitia formed, Day 7 ([2]; 0.1 μM, Day 7, C8166 cells): +
- P 24 ([2]; 0.1 μM, P 24 after Day 7, C8166 cells): 807 pg/mL and 1506 pg/mL
- syncitia formed, Day 4 ([2]; 0.5 μM, C8166 cells): −
- syncitia formed, Day 5 ([2]; 0.5 μM, C8166 cells): −
- syncitia formed, Day 6 ([2]; 0.5 μM, C8166 cells): − and (+)
- syncitia formed, Day 7 ([2]; 0.5 μM, Day 7, C8166 cells): (+) and +
- syncitia formed, Day 4 ([2]; 1 μM, C8166 cells): −
- syncitia formed, Day 5 ([2]; 1 μM, C8166 cells): −
- syncitia formed, Day 6 ([2]; 1 μM, C8166 cells): −
- syncitia formed, Day 7 ([2]; 1 μM, Day 7, C8166 cells): (+)
- P 24 ([2]; 1 μM, P 24 after Day 7, C8166 cells): 62 pg/mL and 42 pg/mL
- syncitia formed, Day 4 ([2]; 5 μM, C8166 cells): −
- syncitia formed, Day 5 ([2]; 5 μM, C8166 cells): −
- syncitia formed, Day 6 ([2]; 5 μM, C8166 cells): −
- syncitia formed, Day 7 ([2]; 5 μM, Day 7, C8166 cells): −
- IC50 [2, 4]: 10 nM
- IC100 [2, 4]: 5 µM
- P 24 ([2]; Day 7, 0.005 μM, Table 6): 23810 pg/mL
- P 24 ([2]; Day 7, 0.01 μM, Table 6): 13850 pg/mL and 11756 pg/mL
- P 24 ([2]; Day 7, 0.05 μM, Table 6): 7330 pg/mL and 9810 pg/mL
- P 24 ([2]; Day 7, 1 μM, Table 6): 5.4 pg/mL and 3.8 pg/mL
- Day 4 syncitia formed ([3]; 0.005 μM): −
- Day 5 syncitia formed ([3]; 0.005 μM): +
- Day 6 syncitia formed ([3]; 0.005 μM): ++
- Day 4 syncitia formed ([3]; 0.01 μM): −
- Day 5 syncitia formed ([3]; 0.01 μM): (+)
- Day 6 syncitia formed ([3]; 0.01 μM): +
- Day 7 syncitia formed ([3]; 0.01 μM): ++
- Day 4 syncitia formed ([3]; 0.05 μM): −
- Day 5 syncitia formed ([3]; 0.05 μM): −
- Day 6 syncitia formed ([3]; 0.05 μM): (+)
- Day 7 syncitia formed ([3]; 0.05 μM): +
- Day 4 syncitia formed ([3]; 0.1 μM): −
- Day 5 syncitia formed ([3]; 0.1 μM): −
- Day 6 syncitia formed ([3]; 0.1 μM): −
- Day 7 syncitia formed ([3]; 0.1 μM): +
- Day 4 syncitia formed ([3]; 0.5 μM): −
- Day 5 syncitia formed ([3]; 0.5 μM): −
- Day 6 syncitia formed ([3]; 0.5 μM): −
- Day 7 syncitia formed ([3]; 0.5 μM): −
- Day 4 syncitia formed ([3]; 1 μM): −
- Day 5 syncitia formed ([3]; 1 μM): −
- Day 6 syncitia formed ([3]; 1 μM): −
- Day 7 syncitia formed ([3]; 1 μM): −
- Day 4 syncitia formed ([3]; 5 μM): −
- Day 5 syncitia formed ([3]; 5 μM): −
- Day 6 syncitia formed ([3]; 5 μM): −
- Day 7 syncitia formed ([3]; 5 μM): −

From patent US20060229433A1, “Modified antiviral peptides with increased activity and cell membrane affinity” (priority 2003, published 2006)
